One series concerns spleen cells. Kind of series: Immunophenotyping on spleen cells, combination with 5 Fluorouracil. In kind it is in vivo, C57/BLJ6 mice. The conditions noted are these: 5 FU 80 mg/kg alone, N = 4. On the procedure:
(§1) After in vivo drugs analysis, the drugs were evaluated on whole blood for drug stability and toxicity. Furthermore, in vivo/ex vivo analysis was performed on normal and cyclophosphamide immunosuppressed animals plus 5Fu-treated animals. Cell immunophenotyping was performed on mouse-treatedblood and spleen. The following cell surface antigens were analyzed:
(§2) CD3 (all T cells), CD4 (T helper/inducer, binds class II-restricted T cells), CD8a (cytotoxic T cells, CTL adhesion), CD11a (T, B, NK, some stem cells, CTL adhesion anti LFA-1α), MAC-1 (monocyte/macrophage), NK (natural killer cells), Ly5 (B cells), CD45 (all leukocytes, protein tyrosine phosphates), and TCR (T cell receptor).
(§3) C57/BLJ6 mice (6-8 weeks old) were injected daily for 4 consecutive days, sacrificed at day 5 and immunophenotyping was performed on blood and spleen cells.
(§4) The cells were washed twice in PBS, resuspended in 1 ml of RPMI 2% FBS, and incubated for 45 min. on ice with monoclonal antibody. The cells were washed once, fixed with 1% paraformaldehyde, then analyzed using XL Coulter® counter.

For series [1], the system named is MC38 colon adenocarcinoma. Description: Compound #1 with 5FU against colon adenocarcinoma (Example 95). In kind it is in vivo, C57/BL mice. On the procedure: C57/BL mice 6-8 weeks old (n=7-9/gr) were injected with 3×10^5 MC38 colon adenocarcinoma cells s.c. on day 0. On day 7, tumor-bearing mice were randomized and injected with 5FU at 20 mg/kg either alone or in combination with levamisole at 20 mg/kg i.p. or with compound #1 at 25 and 50 mg/kg i.p. over a four week period. During this period, animals were treated for 5 consecutive days, untreated for 2 days, and treated again for 5 consecutive days per week for 4 weeks.

In series [2] the test system is blood cells. Description: Immunophenotyping on blood cells, combination with 5 Fluorouracil. It is filed as in vivo, C57/BLJ6 mice. The settings on record: 5 FU 80 mg/kg alone, N = 4. The procedure:
as §1, §2, §3, §4

The next series deals with virus. The settings on record: cited from earlier work.
The subject of the next series is immune system. The settings on record: prior art; cited from earlier work.
The conditions of series [3]: cited from earlier work.
The subject of series [4] is DA-3 mammary carcinoma. Kind of series: Compound #1 with Cytoxan 28 mg/kg against DA-3 mammary carcinoma, tumor sizes (Example 94). In kind it is in vivo, Balb/c mice. Also on record: key: tumor volume = length × width²/2. The procedure:
(§5) Parameters of effect were measured by inhibition of tumor outgrowth and growth rate [tumors measured along the longest axis (length) and the perpendicular shortest axis (width) and the tumor volumes (T.V.±S.E.) was calculated by the formula T.V.=length (cm)×(width cm)^2 /2.] assessment of body weight loss.
(§6) In another experiment, the CTX treatment was prolonged. Balb/c mice were injected s.c. with 5×10^5 DA-3 tumor cells at day 0. At day 4 when established tumors appeared, tumor-bearing animals were randomized (n=11/gr.) and injected with CTX (at 28 mg/kg) i.v. bolus injections at days 4, 11, and 18. […]

Series [5] has as its system DA-3 mammary carcinoma. Kind of series: Tumor outgrowth of breast carcinoma, with cyclophosphamide (Example 92). The conditions noted are these: CY 100 mg/kg. It is filed as in vivo, Balb/C mice. On the procedure: Balb/C Mice (n-5/Gr) were used along with DA-3 mammary carcinoma cell line. The mice were treated from -2 to 13 days. Animals were monitored for tumor takes/tumor size and body weights for three weeks from Day 0 until Day 21. D0 was the day of tumor cell inoculation and D21 was the day of experiment termination.
as §5
The statistical significance of difference between tumor takes and tumor sizes of control-untreated and drug-treated groups is estimated using the Chi-square and Student's t tests respectively with significance determined at n<0.05.
The mice were divided into the following 5 groups:
Gr.1--Normal Saline (0.2 ml/mouse i.p. starting at D2)
Gr.2--CY (100 mg/kg single bolus i.v. at D0)
Gr.3--Compound #1 (25 mg/kg i.p. starting at D2)
Gr.4--Compound #1 (50 mg/kg i.p. starting at D2)
Gr.5--CY (100 mg/kg i.v. at D0+compound #1 50 mg/kg i.p. starting at D2)

Series [6] relates to blood cells. Kind of series: Immunophenotyping on blood cells, combination with cyclophosphamide. In kind it is in vivo, C57/BLJ6 mice. The settings on record: cyclophosphamide 100 mg/kg alone, N = 4. On the procedure: as §1, §2, §3, §4
Series [7] is described as follows: Body weight, compound #1 with Cytoxan 28 mg/kg (Example 94). In kind it is in vivo, Balb/c mice. Also on record: body weight: unit not given here. On the procedure: as §6
Where [8] appears, read: single agent (CTX 28 mg/kg days 4, 11, 18, or BCH-1393 50 mg/kg days 3-28), day 4.
[9] abbreviates: single agent (CTX 28 mg/kg or BCH-1393 50 mg/kg), day 7.
Setting [10] is: single agent (CTX 28 mg/kg or BCH-1393 50 mg/kg), day 9.
Setting [11] is: single agent (CTX 28 mg/kg or BCH-1393 50 mg/kg), day 11.
Setting [12] is: single agent (CTX 28 mg/kg or BCH-1393 50 mg/kg), day 14.
The mark [13] stands for this setting: single agent (CTX 28 mg/kg or BCH-1393 50 mg/kg), day 16.
[14] abbreviates: single agent (CTX 28 mg/kg or BCH-1393 50 mg/kg), day 18.
[15] abbreviates: single agent (CTX 28 mg/kg or BCH-1393 50 mg/kg), day 21.
[16] abbreviates: single agent (CTX 28 mg/kg or BCH-1393 50 mg/kg), day 23.
Setting [17] is: single agent (CTX 28 mg/kg or BCH-1393 50 mg/kg), day 25.
Setting [18] is: single agent (CTX 28 mg/kg or BCH-1393 50 mg/kg), day 28.
[19] abbreviates: single agent (CTX 28 mg/kg or BCH-1393 50 mg/kg), day 30.

With `O=c1[nH]cc(F)c(=O)[nH]1` [5 FU, 5-fluorouracil, reference compound], in the series on spleen cells, the “CD4+ CD45- (mean)” value is given as 10.0 and the “NK+ (mean)” value is given as 4.22. Further, the anti-tumor response entry in series [1] (5FU 20 mg/kg alone) is listed as “moderate anti-tumor response”. Moreover, in the series on blood cells [2], the “CD8+ CD45+ (mean)” value was 6.66 and the “NK+ (mean)” value is 3.24.

For `Nc1nc2c(ccn2[C@@H]2O[C@H](CO)[C@@H](O)[C@H]2O)c(=O)[nH]1` [7-deazaguanosine], the “immunostimulatory and antiviral activity” value in the series with virus (after oral administration, preliminary) was “significant immunostimulatory and antiviral activity after oral administration”.

As to `Nc1nc2c(sc(=O)n2[C@@H]2O[C@H](CO)[C@@H](O)[C@H]2O)c(=O)[nH]1` [7-thia-8-oxoguanosine], the antiviral results with virus (humans) is given as “few encouraging results”. Also, in the series on immune system, the immunomodulating activity result was “activate NK and B cells in the immune system, and to induce interferon”. The oral bioavailability entry in [3] is listed as “lack of oral bioavailability”.

In the case of `c1ccc([C@H]2CN3CCSC3=N2)cc1` [Levamisole, levamisole], the anti-tumor response result in series [1] (5FU 20 mg/kg plus Levamisole 20 mg/kg) is “moderate anti-tumor response”. For the same compound, in series [3] (adjuvant levamisole therapy for malignant melanoma), the adverse effect entry was “induces serious thrombocytopenia”.

Regarding `O=P1(N(CCCl)CCCl)NCCCO1` (stereo not shown) [cyclophosphamide, reference compound], the tumor size amounted to 4.2 in the series on DA-3 mammary carcinoma [4] (setting [8]); 10.5 in the series with DA-3 mammary carcinoma [4] (setting [9]); 18.6 in the series on DA-3 mammary carcinoma [4] (setting [10]); 30.7 with DA-3 mammary carcinoma [4] (setting [11]); 50.6 in the series with DA-3 mammary carcinoma [4] (setting [12]); 54.5 in the series with DA-3 mammary carcinoma [4] (setting [13]). Besides, the tumor size in the series on DA-3 mammary carcinoma [4] (setting [14]) is 63.4; with DA-3 mammary carcinoma [4] (setting [15]), 88.5; in the series on DA-3 mammary carcinoma [4] (setting [16]) it was 93.4; in the series on DA-3 mammary carcinoma [4] (setting [17]), 106.3; in the series with DA-3 mammary carcinoma [4] (setting [18]) it was 130.9; with DA-3 mammary carcinoma [4] (setting [19]), 151.6. The Tumor takes with DA-3 mammary carcinoma [5] (day 4), in the series with DA-3 mammary carcinoma [5] (day 6), with DA-3 mammary carcinoma [5] (day 8) and with DA-3 mammary carcinoma [5] (day 10) was 5/5 in each case. In addition, the “CP8+ CD45+ (mean)” value with blood cells [6] was 15.05. Also, the body weight is listed as 19.2 in [7] (setting [8]); 19.8 in series [7] (setting [9]); 19.8 in series [7] (setting [10]); 19.9 in series [7] (setting [11]); 19.2 in series [7] (setting [12]); 19.7 in series [7] (setting [13]). The body weight in series [7] (setting [14]) worked out at 19.6; in [7] (setting [15]) it was 19.8; in [7] (setting [16]), 19.7; in series [7] (setting [17]) it was 20.1; in series [7] (setting [18]) it was 20.3; in series [7] (setting [19]), 20.4.

These data come from US5994361A, “Substituted purinyl derivatives with immunomodulating activity” (priority 1995, dated 1999).
